Values after ≈ are worked out from the molar mass of the structure shown. Starred links: 1 amine or outer side, 2 acyl side, 3 side chain; linkers in the order of their positions; H or OH if unused. Non-standard residues stand in square brackets, D forms with d. Residues, ends and D or L forms follow the SMILES beside them. X1 = O=C(c1csc([C@H](Cc2ccccc2)N[*:1])n1)[*:2]; Met(O) = CS(=O)CC[C@H](N)C(=O)O
Legend:
Type in all cases: functional, cell-based
[1] = tested on: A549; assay: Cytotoxicity against human A549 cells after 2 days; conditions: A549, 48 h
[2] = tested on: HCT-15; assay: Cytotoxicity against human HCT15 cells after 2 days; conditions: HCT-15, 48 h
[3] = tested on: SF-539; assay: Cytotoxicity against human SF539 cells after 2 days; conditions: SF-539, 48 h
[4] = tested on: SNB-19; assay: Cytotoxicity against human SNB19 cells after 2 days; conditions: SNB-19, 48 h

Row | Compound | IC50 [1] [µg/mL] | IC50 [2] [µg/mL] | IC50 [3] [µg/mL] | IC50 [4] [µg/mL]
1 | CSCC[C@@H]1NC(=O)[C@@H]2CCCN2C(=O)[C@@H]2CCCN2C(=O)[C@H](CC[S+](C)[O-])NC(=O)c2csc(n2)[C@H](Cc2ccccc2)NC(=O)[C@@H]2CCCN2C1=O (stereo partly drawn) [HALIGRAMIDE B] (cyclo(MP[X1][Met(O)]PP)) | 3.89 (≈ 4.86 µM) | 8.82 (≈ 11 µM) | 5.01 (≈ 6.26 µM) | 6.56 (≈ 8.2 µM)
2 | CSCC[C@@H]1NC(=O)[C@@H]2CCCN2C(=O)[C@@H]2CCCN2C(=O)[C@H](CCSC)NC(=O)c2csc(n2)[C@H](Cc2ccccc2)NC(=O)[C@@H]2CCCN2C1=O [HALIGRAMIDE A] (cyclo(MPPMP[X1])) | 5.17 (≈ 6.59 µM) | 15.6 (≈ 19.9 µM) | 9 (≈ 11.5 µM) | 9.08 (≈ 11.6 µM)

Source: ChEMBL document CHEMBL1142643, “Haligramides A and B, two new cytotoxic hexapeptides from the marine sponge Haliclona nigra” (J Nat Prod, 2000)
